Counter-ions that a name gives are not always drawn.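 Dose response: 5 concentrations. Exposure: 48 h. Format: 96-well plates. Endpoint: linear interpolation; highest concentration if not reached. Abbreviation: GI50, concentration required for 50% inhibition of growth.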 The source made the active and inactive calls. Cut-off read from the data, not from the text of the source: active = GI50 up to about 1.1 µM and inactive = higher.
Legend:
Assay in all cases: NCI-60 cell line screen, 48 h
786-0 = test system: 786-0
ACHN = test system: ACHN
BT-549 = test system: BT-549
EKVX = test system: EKVX
HCT-116 = test system: HCT-116
HL-60 = test system: HL-60
HOP-62 = test system: HOP-62
HOP-92 = test system: HOP-92
IGROV-1 = test system: IGROV-1
K562 = test system: K562
KM12 = test system: KM12
M14 = test system: M14
NCI-H226 = test system: NCI-H226
NCI-H23 = test system: NCI-H23
OVCAR-4 = test system: OVCAR-4
OVCAR-8 = test system: OVCAR-8
PC-3 = test system: PC-3
RXF 631 = test system: RXF 631
SN12C = test system: SN12C
SNB-19 = test system: SNB-19

Measured: GI50

NCCSSCCN [CYSTAMINE HYDROCHLORIDE]
inactive: 786-0 > 100 µM | ACHN > 100 µM | BT-549 > 100 µM | EKVX > 100 µM | HCT-116 > 100 µM | HL-60 > 100 µM | HOP-62 > 100 µM | HOP-92 > 100 µM | IGROV-1 > 100 µM | K562 > 100 µM | KM12 > 100 µM | M14 > 100 µM | NCI-H226 > 100 µM | NCI-H23 > 100 µM | OVCAR-4 > 100 µM | OVCAR-8 > 100 µM | PC-3 > 100 µM | RXF 631 > 100 µM | SN12C > 100 µM | SNB-19 > 100 µM

O=C(CCC(=O)Nc1ccc(Cl)c(Cl)c1)CC(=O)c1ccc(F)cc1
inactive: 786-0 > 100 µM | ACHN > 100 µM | EKVX > 100 µM | HCT-116 > 100 µM | HL-60 > 100 µM | HOP-62 > 100 µM | HOP-92 > 100 µM | IGROV-1 > 100 µM | K562 > 100 µM | KM12 > 100 µM | M14 > 100 µM | NCI-H226 > 100 µM | NCI-H23 > 100 µM | OVCAR-4 > 100 µM | OVCAR-8 > 100 µM | RXF 631 > 100 µM | SN12C > 100 µM | SNB-19 > 100 µM

C[C@]12CC=CC(=O)[C@@]1(C)CCC(=O)C2
inactive: 786-0 > 100 µM | ACHN > 100 µM | EKVX > 100 µM | HCT-116 > 100 µM | HL-60 > 100 µM | HOP-62 > 100 µM | HOP-92 > 100 µM | IGROV-1 > 100 µM | K562 > 100 µM | KM12 > 100 µM | M14 > 100 µM | NCI-H226 > 100 µM | NCI-H23 > 100 µM | OVCAR-4 > 100 µM | OVCAR-8 > 100 µM | RXF 631 > 100 µM | SN12C > 100 µM | SNB-19 > 100 µM

Brc1ccc(-c2nnc(-c3nn(-c4ccccc4)c4nc5ccccc5nc34)o2)cc1
inactive: 786-0 > 100 µM | ACHN > 100 µM | EKVX > 100 µM | HCT-116 27.8 µM | HL-60 27.3 µM | HOP-62 > 100 µM | HOP-92 > 100 µM | IGROV-1 > 100 µM | K562 27 µM | KM12 > 100 µM | M14 > 100 µM | NCI-H226 > 100 µM | NCI-H23 > 100 µM | OVCAR-4 79.3 µM | OVCAR-8 > 100 µM | RXF 631 > 100 µM | SN12C > 100 µM | SNB-19 > 100 µM

Reference: ChEMBL document CHEMBL1201862, “PubChem BioAssay data set” (2004)
